Laboratory results from patent US20170327549A1, “Adenylation Enzyme Inhibitors” (Stichting Het Nederlands Kanker Instituut - antoni van …, priority 2014, published 2017).

Target: T1, Uba1 (Homo sapiens, UniProt P22314)
T1 sequence (P22314 1-1058): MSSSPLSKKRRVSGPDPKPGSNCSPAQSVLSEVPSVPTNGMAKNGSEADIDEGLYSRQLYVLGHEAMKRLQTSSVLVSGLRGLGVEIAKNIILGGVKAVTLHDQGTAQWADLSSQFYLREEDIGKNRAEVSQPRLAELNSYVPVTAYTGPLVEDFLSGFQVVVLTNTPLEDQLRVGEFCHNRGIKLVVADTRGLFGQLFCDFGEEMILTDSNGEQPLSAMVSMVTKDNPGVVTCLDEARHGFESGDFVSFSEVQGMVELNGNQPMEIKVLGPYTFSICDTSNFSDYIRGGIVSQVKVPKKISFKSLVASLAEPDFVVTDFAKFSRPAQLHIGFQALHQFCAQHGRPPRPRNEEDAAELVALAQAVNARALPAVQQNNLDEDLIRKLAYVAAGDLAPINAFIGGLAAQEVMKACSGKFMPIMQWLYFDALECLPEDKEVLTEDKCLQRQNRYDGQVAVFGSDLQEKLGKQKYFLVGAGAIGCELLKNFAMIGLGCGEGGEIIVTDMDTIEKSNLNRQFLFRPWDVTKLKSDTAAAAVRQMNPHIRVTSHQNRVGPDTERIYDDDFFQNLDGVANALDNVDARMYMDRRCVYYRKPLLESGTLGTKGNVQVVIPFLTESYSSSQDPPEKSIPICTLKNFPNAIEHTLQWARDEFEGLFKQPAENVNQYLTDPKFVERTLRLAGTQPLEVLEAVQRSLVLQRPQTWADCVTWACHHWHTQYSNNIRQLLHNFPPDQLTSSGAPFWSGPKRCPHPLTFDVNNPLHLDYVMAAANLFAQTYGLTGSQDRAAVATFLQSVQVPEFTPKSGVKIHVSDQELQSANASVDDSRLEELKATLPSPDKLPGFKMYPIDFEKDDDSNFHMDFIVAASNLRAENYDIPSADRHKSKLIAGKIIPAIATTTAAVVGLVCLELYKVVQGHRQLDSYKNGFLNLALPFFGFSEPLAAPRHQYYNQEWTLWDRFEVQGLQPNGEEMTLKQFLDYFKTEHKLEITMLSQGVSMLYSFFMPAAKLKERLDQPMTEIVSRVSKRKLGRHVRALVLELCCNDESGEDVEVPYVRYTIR
Assay: Peptide inhibitors of Ub-E1 thioester formation
Type: biochemical
Protocol: Peptides VYRFYGG and VYRFYGΔAla of varying concentrations (10, 50, 100, 200, 500, 700, 1000 μM) were incubated with 0.3 μM Uba1 in the presence of 1 mM ATP and 10 mM MgCl2 in TBS buffer (50 mM Tris, 150 mM NaCl, pH=7.5) for 15 min at room temperature. TAMRA-Ub (1 μM) was added to the reaction and samples were taken at two time points, respectively 15 sec and 15 min. The proteins were separated by SDS-PAGE and the TAMRA-Ub-E1 conjugates were visualized using a fluorescence scanner (λex=530 nm; λem=580 nm).

[1] = initial velocities measured at 15 seconds
[2] = reactions allowed to proceed for 15 min

Substance | inhibitory potency against Uba1 activity relative to VYRFYGG (after 15 min incubation, quantified from gel scanning) | inhibition of (TAMRA-Ub)-E1 formation [1] | inhibition of (TAMRA-Ub)-E1 formation [2]
VYRFYG-ΔAla | higher inhibitory potency against Uba1 activity | inhibitory effect | prolonged inhibition of the E1
VYRFYGG [reference compound] |  | inhibitory effect | no detectable inhibition of E1 activity
